# Source: patent US6410533B1, “Antibacterial compounds” (Genzyme Corporation, priority 2000, dated 2002)
# Read-outs that look alike come from different tables or passages of the source.
# Assays:
# [1] = tested on: Staphylococcus aureus bacteria (ATCC 9604 SV); assay: Minimal inhibitory concentration (MIC), broth microdilution; format: cell-based; conditions: 24 h at 37° C.
# Experimental: Minimal inhibitory concentrations (MICs) for Staphylococcus aureus bacteria (ATCC 9604 SV) were determined by broth microdilution methodology following National Committee for Clinical Laboratory Standards. In the MIC determinations, the compounds were incorporated into Mueller-Hinton broth (Becton Dickinson Microbiology systems, Cockeyville, Md.) at a series of concentrations. After the test organism was grown overnight in TB broth, the broths were adjusted to the turbidity equivalent to 0.05 McFarland standard. The suspensions were diluted twenty-fold into the broth containing the compounds. […] In the IC50 determination, the method was modified to allow the rapid growth of the organisms. The inoculum suspensions were adjusted to 0.1 McFarland standard and then diluted two-fold into the wells containing TB broth and the compounds. After three to five hours incubation at 37° C., the turbidity was measured at 550 nm and inhibitory activity was defined as the concentration of antimicrobial agent that inhibits 50% growth of the organism in the microdilution wells.
# [2] = tested on: methicillin-resistant Staphylococcus aureus (ATCC 33591); assay: In vivo mouse intraperitoneal infection, mortality and % survivors over 7 days; conditions: 1 and 5 h post inoculation, MRSA ATCC 33591 i.p., ICR mice
# Experimental: Ten male ICR mice weighing 20 grams were inoculated intraperitoneally with an LD90-100 dose (2-3×10^7 CFU/mouse) of methicillin-resistant Staphylococcus aureus (ATCC 33591) in brain-heart infusion broth containing 5% mucin. Compounds were suspended in a vehicle containing 1% cremophore EL (Sigma) in normal saline and were administered subcutaneously in a volume of 0.4 ml per mouse either 1 hour following bacterial inoculation or 1 and 5 hours post inoculation. Animals receiving two doses of drug were injected subcutaneously in the hindquarter one hour post-innoculation and in the neck area, 5 hours post-innoculation. Deaths occurring during the subsequent 7 days are recorded. Mortality and % survivor endpoints are calculated.
# [3] = Staphylococcus aureus ATCC 9604 SV
# [4] = ATCC9604, Staphylococcus aureus ATCC 9604 SV, read-out: MIC
SMILES,"MIC [1, 3]",also measured
CC1(C)C(=O)N(c2cc(Cl)cc(Cl)c2)N=C1c1ccccc1 [Compound 4],>8.33 µg/mL,
CC1=NN(c2cc(Cl)cc(Cl)c2)C(=O)C1 [Compound 5],6.08 µg/mL,
Cc1ccc(C2=NN(c3cc(Cl)cc(Cl)c3)C(=O)C2)cc1 [Compound 6],>7.98 µg/mL,
O=C1CC(c2ccccc2F)=NN1c1cc(Cl)cc(Cl)c1 [Compound 7],>8.08 µg/mL,
O=C1CC(C2CCCCC2)=NN1c1cc(Cl)cc(Cl)c1 [Compound 8],>7.78 µg/mL,
"CN(C)C=C1C(=O)N(c2cc(Cl)cc(Cl)c2)N=C1c1ccccc1 [Compound 9, 2-(3,5-Dichloro-phenyl)-4-dimethylaminomethylene-5-phenyl-2,4-dihydro-pyrazol-3-one]",,"MIC [1, 4]: > 9.01 µg/mL"
CCCC1=NN(c2cc(Cl)cc(Cl)c2)C(=O)C1 [Compound 10],0.813 µg/mL,"In Vivo, double dose (% of mice rescued) ([2]; 2 × 2 mg/kg s.c.): 0% @ 2 × 2 mg/kg; In Vivo, double dose (% of mice rescued) ([2]; 2 × 20 mg/kg s.c.): 0% @ 2 × 20 mg/kg"
CC1=NN(c2cc(Cl)cc(Cl)c2)C(=O)C1C (stereo not drawn) [Compound 11],>6.43 µg/mL,
O=C1C2CCCC2=NN1c1cc(Cl)cc(Cl)c1 (stereo not drawn) [Compound 12],>6.73 µg/mL,
CC(C)C1=NN(c2cc(Cl)cc(Cl)c2)C(=O)C1 [Compound 13],>6.78 µg/mL,
O=C1CC(C(F)(F)F)=NN1c1cc(Cl)cc(Cl)c1 [Compound 14],3.56 µg/mL,
O=C1CC(c2cccc(F)c2)=NN1c1cc(Cl)cc(Cl)c1 [Compound 15],0.485 µg/mL,"In Vivo, double dose (% of mice rescued) ([2]; 2 × 2 mg/kg s.c.): 0% @ 2 × 2 mg/kg; In Vivo, double dose (% of mice rescued) ([2]; 2 × 20 mg/kg s.c.): 0% @ 2 × 20 mg/kg"
O=C1CC(c2ccc(F)cc2)=NN1c1cc(Cl)cc(Cl)c1 [Compound 16],0.485 µg/mL,"In Vivo, double dose (% of mice rescued) ([2]; 2 × 2 mg/kg s.c.): 0% @ 2 × 2 mg/kg; In Vivo, double dose (% of mice rescued) ([2]; 2 × 20 mg/kg s.c.): 25% @ 2 × 20 mg/kg"
CCC1=NN(c2cc(Cl)cc(Cl)c2)C(=O)C1 [Compound 17],1.54 µg/mL,"In Vivo, double dose (% of mice rescued) ([2]; 2 × 2 mg/kg s.c.): 12.5% @ 2 × 2 mg/kg; In Vivo, double dose (% of mice rescued) ([2]; 2 × 20 mg/kg s.c.): 25% @ 2 × 20 mg/kg"
O=C1C2CCCCC2=NN1c1cc(Cl)cc(Cl)c1 (stereo not drawn) [Compound 18],>7.08 µg/mL,
O=C1C(=Cc2ccncc2)C(c2ccccc2)=NN1c1cc(Cl)cc(Cl)c1 [Compound 19],1.15 µg/mL,"In Vivo, double dose (% of mice rescued) ([2]; 2 × 2 mg/kg s.c.): 0% @ 2 × 2 mg/kg; In Vivo, double dose (% of mice rescued) ([2]; 2 × 20 mg/kg s.c.): 25% @ 2 × 20 mg/kg"
CCC1C(=O)N(c2cc(Cl)cc(Cl)c2)N=C1C (stereo not drawn) [Compound 20],>6.78 µg/mL,
CC1=NN(c2cc(Cl)cc(Cl)c2)C(=O)C1Cc1ccccc1 (stereo not drawn) [Compound 21],8.33 µg/mL,
CC(C)=C1C(=O)N(c2cc(Cl)cc(Cl)c2)N=C1c1ccccc1 [Compound 22],0.518 µg/mL,"In Vivo, double dose (% of mice rescued) ([2]; 2 × 2 mg/kg s.c.): 0% @ 2 × 2 mg/kg; In Vivo, double dose (% of mice rescued) ([2]; 2 × 20 mg/kg s.c.): 25% @ 2 × 20 mg/kg"
"O=C1C(=NO)C(c2ccccc2)=NN1c1cc(Cl)cc(Cl)c1 [Compound 23, 2-(3,5-Dichloro-phenyl)-5-phenyl-2H-pyrazole-3,4-dione-4-oxime]",,"MIC [1, 4]: 8.35 µg/mL; In Vivo, double dose (% of mice rescued) ([2]; 2 × 2 mg/kg s.c.): 0% @ 2 × 2 mg/kg; In Vivo, double dose (% of mice rescued) ([2]; 2 × 20 mg/kg s.c.): 25% @ 2 × 20 mg/kg"
O=C(C=C1C(=O)N(c2cc(Cl)cc(Cl)c2)N=C1c1ccccc1)c1ccccc1 [Compound 26],>12.5 µg/mL,
CCN(CC)c1ccc(C=C2C(=O)N(c3cc(Cl)cc(Cl)c3)N=C2c2ccccc2)cc1 [Compound 27],>12.5 µg/mL,
CN(C)CCCOc1ccc(C=C2C(=O)N(c3cc(Cl)cc(Cl)c3)N=C2c2ccccc2)cc1 [Compound 28],>12.5 µg/mL,
O=C1C(=Cc2ccccn2)C(c2ccccc2)=NN1c1cc(Cl)cc(Cl)c1 [Compound 29],12.5 µg/mL,
Cn1cccc1C=C1C(=O)N(c2cc(Cl)cc(Cl)c2)N=C1c1ccccc1 [Compound 32],0.320 µg/mL,
O=C1C(=Cc2ccco2)C(c2ccccc2)=NN1c1cc(Cl)cc(Cl)c1 [Compound 35],>12.5 µg/mL,

SMILES,"MIC [1, 3]",also measured
O=C1C(=Cc2cccs2)C(c2ccccc2)=NN1c1cc(Cl)cc(Cl)c1 [Compound 36],12.5 µg/mL,
O=C1C(=Cc2nccs2)C(c2ccccc2)=NN1c1cc(Cl)cc(Cl)c1 [Compound 37],12.5 µg/mL,
CSc1ccc(C=C2C(=O)N(c3cc(Cl)cc(Cl)c3)N=C2c2ccccc2)cc1 [Compound 38],6.25 µg/mL,
O=C1C(=Cc2c[nH]c3ccccc23)C(c2ccccc2)=NN1c1cc(Cl)cc(Cl)c1 [Compound 39],>10.0 µg/mL,
CCOC(=O)N1CCC(=C2C(=O)N(c3cc(Cl)cc(Cl)c3)N=C2c2ccccc2)CC1 [Compound 41],12.5 µg/mL,
Cn1cc(C=C2C(=O)N(c3cc(Cl)cc(Cl)c3)N=C2c2ccccc2)c2ccccc21 [Compound 43],0.400 µg/mL,
COC(=O)c1ccccc1C=C1C(=O)N(c2cc(Cl)cc(Cl)c2)N=C1c1ccccc1 [Compound 44],12.5 µg/mL,
O=C1CC(c2ccccc2)=NN1c1cc(C(F)(F)F)cc(C(F)(F)F)c1 [Compound 47],2.33 µg/mL,
O=C1CC(c2ccccn2)=NN1c1cc(Cl)cc(Cl)c1 [Compound 48],>7.65 µg/mL,
O=C1CC(c2cccnc2)=NN1c1cc(Cl)cc(Cl)c1 [Compound 53],7.65 µg/mL,
CCC1=NN(c2cc(Cl)cc(Cl)c2)C(=O)C1=NO [Compound 60],7.15 µg/mL,
CCC1=NN(c2cc(Cl)cc(Cl)c2)C(=O)C1=CCCC(=O)O [Compound 61],8.53 µg/mL,
CCOC(=O)C1=NN(c2cc(Cl)cc(Cl)c2)C(=O)C1=CC1C(=O)Nc2ccccc21 (stereo not drawn) [Compound 62],12.5 µg/mL,
CCOC(=O)C1=NN(c2cc(Cl)cc(Cl)c2)C(=O)C1=Cc1ccc(C(=O)O)cc1 [Compound 63],12.5 µg/mL,
CCOC(=O)C1=NN(c2cc(Cl)cc(Cl)c2)C(=O)C1=CC(=O)O [Compound 64],6.25 µg/mL,
CCOC(=O)C1=NN(c2cc(Cl)cc(Cl)c2)C(=O)C1 [Compound 67],3.76 µg/mL,
CCC1=NN(c2cc(Cl)cc(Cl)c2)C(=O)C1=Cc1cccc(C(=O)N2CCN(C)CC2)c1 [Compound 68],11.8 µg/mL,
CCC1=NN(c2cc(Cl)cc(Cl)c2)C(=O)C1=Cc1cccc(C(=O)N2CCOCC2)c1 [Compound 69],11.5 µg/mL,
CCC1=NN(c2cc(Cl)cc(Cl)c2)C(=O)C1=Cc1cccc(C(=O)NCCO)c1 [Compound 70],5.40 µg/mL,
O=C(NCc1cccc(Cl)c1)Nc1nc(-c2cccc(F)c2)cs1 [Compound 174],9.05 µg/mL,
O=C(NCc1cccc(Cl)c1)Nc1nc(-c2ccc(C(F)(F)F)cc2)cs1 [Compound 176],5.15 µg/mL,
O=C(NCc1cccc(Cl)c1)Nc1nc(-c2ccc(Cl)cc2Cl)cs1 [Compound 177],5.16 µg/mL,
O=C(NCc1cccc(Cl)c1)Nc1nc(-c2ccc(F)cc2F)cs1 [Compound 178],9.50 µg/mL,
O=C(NCc1cccc(Cl)c1)Nc1nc(-c2ccc(Cl)c(Cl)c2)cs1 [Compound 179],5.16 µg/mL,
Cc1cc(-c2csc(NC(=O)NCc3cccc(Cl)c3)n2)ccc1F [Compound 180],9.40 µg/mL,
O=C(NCc1ccc(Cl)c(Cl)c1)Nc1nc(-c2ccc(Br)cc2)cs1 [Compound 181],11.4 µg/mL,
